From US9487540B2, “Compound for inhibiting the growth and proliferation of human liver cancer cells and method for synthesizing it” (priority 2015, dated 2016)
Values after ≈ are worked out from the molar mass of the structure shown.

Columns and labels:
[1] = Cytotoxicity evaluation using viability assay (crystal violet colorimetric method); type: cell-based; settings: human, HepG2 cells; for viability at 48 h, 0.78 μg: HepG2, sample conc. 0.78 μg
[2] = as above; type: cell-based, human; settings: human, HepG2 cells, 48 hours; for viability at 48 h, 1.56 μg: HepG2, sample conc. 1.56 μg; for viability at 48 h, 3.125 μg: HepG2, sample conc. 3.125 μg; for viability at 48 h, 6.25 μg: HepG2, sample conc. 6.25 μg; for viability at 48 h, 12.5 μg: HepG2, sample conc. 12.5 μg; for viability at 48 h, 25 μg: HepG2, sample conc. 25 μg; for viability at 48 h, 50 μg: HepG2, sample conc. 50 μg
Source text: (§1) HepG2 cells (human cell line of a well differentiated hepatocellular carcinoma isolated from a liver biopsy of a person) were obtained from the American Type Culture Collection (ATCC). The chemicals used were: Dimethyl sulfoxide (DMSO), crystal violet and trypan blue dye, purchased from Sigma, St. Louis, Mo., USA; DMEM, RPMI-1640, FBS, HEPES buffer solution, L-glutamine, gentamycin and 0.25% Trypsin-EDTA, purchased from BioWhittaker®, Lonza, Belgium; and Crystal violet stain (1%), composed of 0.5% (w/v) crystal violet and 50% methanol, made up to volume with ddH20 and filtered through a Whatmann No. I filter paper.
(§2) In the cytotoxicity assay, the cells were propagated in Dulbecco's modified Eagle's medium (DMEM) supplemented with 10% heat-inactivated fetal bovine serum, 1% L-glutamine, HEPES buffer and 50 μg/ml gentamycin. All cells were maintained at 37° C. in a humidified atmosphere with 5% CO2 and were subcultured two times a week.
(§3) Cell toxicity was monitored by determining the effect of the test samples on cell morphology and cell viability.
(§4) For cytotoxicity assay, the cells were seeded in a 96-well plate at a cell concentration of 1×10^4 cells per well in 100 μl of growth medium. Fresh medium containing different concentrations of the test sample was added after 24 hours following seeding. Serial two-fold dilutions of the tested chemical compound were added to confluent cell monolayers dispensed into 96-well, flat-bottomed microtiter plates (Falcon, N.J., USA) using a multichannel pipette. The microtiter plates were incubated at 37° C. in a humidified incubator with 5% CO2 for a period of 48 hours. Three wells were used for each concentration of the test sample. Control cells were incubated without test sample and with or without DMSO. The little percentage of DMSO present in the wells (maximal 0.1%) was found not to affect the experiment. After incubation of the cells for 24 hours at 37° C., various concentrations of sample (50, 25, 12.5, 6.25, 3.125 & 1.56 μg) were added, and the incubation was continued for 48 hours and viable cells yield was determined by a colorimetric method.
(§5) In brief, after the end of the incubation period, media were aspirated and the crystal violet solution (1%) was added to each well for at least 30 minutes. The stain was removed and the plates were rinsed using tap water until all excess stain was removed. Glacial acetic acid (30%) was then added to all wells and mixed thoroughly and then the absorbance of the plates was measured after being gently shaken on a Microplate reader (TECAN, Inc.), using a test wavelength of 490 nm. All results were corrected for background absorbance detected in wells without added stain. Treated samples were compared with the cell control in the absence of the tested compound. All experiments were carried out in triplicate.
(§6) The cell cytotoxic effect of tested compound was calculated according to the rapid colorimetric assay for cellular growth and survival: application to proliferation and cytotoxicity assay, published by T. Mosmann in the Journal of Immunology Methods, 1983, 65:55-63; and the antiviral activity of medicinal plants of Nilgriris, published by P. Vijayan et al. in the Indian Journal of Medical Research, 2004, 120: 24-29.

[3] = test system: HepG2 (Hepatocellular carcinoma cells); test: Cytotoxicity evaluation using viability assay (crystal violet colorimetric method); type: cell-based, human; settings: Homo sapiens, 48 hours incubation, read-out: inhibition concentration value (IC50)
Source text: as §1, §2, §3, §4, §5, §6

Q: For COc1cccc2c1C(=O)c1c(O)c3c(c(O)c1C2=O)C[C@@](O)(C(=O)CO)C[C@@H]3O[C@H]1C[C@H](N)[C@H](O)[C@H](C)O1 [Doxorubicin, reference compound], which viability at 48 h, 0.78 μg [1] is on record?
A: 57.4%

Q: And the viability at 48 h, 1.56 μg [2]?
A: 48.2%

Q: What about the viability at 48 h, 3.125 μg [2] of the same compound?
A: 30.3%

Q: And the viability at 48 h, 6.25 μg [2]?
A: 21%

Q: What about the viability at 48 h, 12.5 μg [2] of the same compound?
A: 16.9%

Q: What about the viability at 48 h, 25 μg [2] of the same compound?
A: 14.3%

Q: What about the viability at 48 h, 50 μg [2] of the same compound?
A: 10.9%

Q: Which melting point does the source give for O=c1[nH]c(Nc2ccc([N+](=O)[O-])cc2)nc2sc3c(c12)CCCCC3 (hydrate or solvate) [Compound III, 2-((4-Nitrophenyl)amino)-6,7,8,9-tetrahydro-3H-cyclohepta[4,5]thieno[2,3-d]pyrimidin-4(5H)-one] here?
A: 298 °C

Q: With O=c1[nH]c(Nc2ccc([N+](=O)[O-])cc2)nc2sc3c(c12)CCCCC3 [Compound III, 2-((4-Nitrophenyl)amino)-6,7,8,9-tetrahydro-3H-cyclohepta[4,5]thieno[2,3-d]pyrimidin-4(5H)-one] as the compound, how does the viability at 48 h, 0.39 μg ([1]; HepG2, sample conc. 0.39 μg) read?
A: 60.8%

Q: What about the viability at 48 h, 0.78 μg [1] of the same compound?
A: 47.1%

Q: What about the viability at 48 h, 1.56 μg [2] of the same compound?
A: 36.9%

Q: And the viability at 48 h, 3.125 μg [2]?
A: 23.7%

Q: What about the viability at 48 h, 6.25 μg [2] of the same compound?
A: 18.5%

Q: And the viability at 48 h, 12.5 μg [2]?
A: 14.4%

Q: And the viability at 48 h, 25 μg [2]?
A: 10.2%

Q: What about the viability at 48 h, 50 μg [2] of the same compound?
A: 6.32%

Q: What about the IC50 [3] of the same compound?
A: 0.7 µg/mL (≈ 1.96 µM)
